Measurements taken from the kinase profiling compilation of Christmann-Franck et al. (2016).

Key:
Assay in all cases: KINOMEscan competition binding
AXL (human) = AXL (human) (UniProt P30530); conditions: compound 10.0 µM
TNK2 (human) = TNK2 (human) (UniProt Q07912); conditions: compound 10.0 µM
PRKAA2 (human) = PRKAA2 (human) (UniProt P54646); conditions: compound 10.0 µM
PRPF4B (human) = PRPF4B (human) (UniProt Q13523); conditions: compound 10.0 µM
[1] = test system: ABL1 (human), P00519 [E255K]; conditions: compound 10.0 µM
MAPK3 (human) = MAPK3 (human) (UniProt P27361); conditions: compound 10.0 µM
PRKX (human) = PRKX (human) (UniProt P51817); conditions: compound 10.0 µM
CDC2L2 (human) = CDC2L2 (human) (UniProt Q9UQ88); conditions: compound 10.0 µM
MAP3K6 (human) = MAP3K6 (human) (UniProt O95382); conditions: compound 10.0 µM
PTK2 (human) = PTK2 (human) (UniProt Q05397); conditions: compound 10.0 µM
MAP4K1 (human) = MAP4K1 (human) (UniProt Q92918); conditions: compound 10.0 µM
RPS6KA4 KD1 (human) = RPS6KA4 KD1 (human) (UniProt O75676); conditions: compound 10.0 µM
CLK4 (human) = CLK4 (human) (UniProt Q9HAZ1); conditions: compound 10.0 µM
DCLK3 (human) = DCLK3 (human) (UniProt Q9C098); conditions: compound 10.0 µM
NUAK2 (human) = NUAK2 (human) (UniProt Q9H093); conditions: compound 10.0 µM
MAST1 (human) = MAST1 (human) (UniProt Q9Y2H9); conditions: compound 10.0 µM
PRKCE (human) = PRKCE (human) (UniProt Q02156); conditions: compound 10.0 µM
PKN1 (human) = PKN1 (human) (UniProt Q16512); conditions: compound 10.0 µM
CDKL5 (human) = CDKL5 (human) (UniProt O76039); conditions: compound 10.0 µM
ULK2 (human) = ULK2 (human) (UniProt Q8IYT8); conditions: compound 10.0 µM
NTRK2 (human) = NTRK2 (human) (UniProt Q16620); conditions: compound 10.0 µM
MAP3K11 (human) = MAP3K11 (human) (UniProt Q16584); conditions: compound 10.0 µM
PAK7 (human) = PAK7 (human) (UniProt Q9P286); conditions: compound 10.0 µM
TXK (human) = TXK (human) (UniProt P42681); conditions: compound 10.0 µM
SNRK (human) = SNRK (human) (UniProt Q9NRH2); conditions: compound 10.0 µM
MAP3K13 (human) = MAP3K13 (human) (UniProt O43283); conditions: compound 10.0 µM
WEE1 (human) = WEE1 (human) (UniProt P30291); conditions: compound 10.0 µM
[2] = test system: RET (human), P07949 [M918T]; conditions: compound 10.0 µM
PLK1 (human) = PLK1 (human) (UniProt P53350)
CDK4 CCND3 (human) = CDK4 CCND3 (human) (UniProt P11802+P30281); conditions: compound 10.0 µM
[3] = test system: EGFR (human), P00533 [T790M]; conditions: compound 10.0 µM
STK39 (human) = STK39 (human) (UniProt Q9UEW8); conditions: compound 10.0 µM
CDKL1 (human) = CDKL1 (human) (UniProt Q00532); conditions: compound 10.0 µM
FGFR3 (human) = FGFR3 (human) (UniProt P22607); conditions: compound 10.0 µM
[4] = test system: PIK3CA (human), P42336 [Q546K]; conditions: compound 10.0 µM
ACVR1 (human) = ACVR1 (human) (UniProt Q04771); conditions: compound 10.0 µM
EPHA2 (human) = EPHA2 (human) (UniProt P29317); conditions: compound 10.0 µM
IKBKE (human) = IKBKE (human) (UniProt Q14164); conditions: compound 10.0 µM
ALK (human) = ALK (human) (UniProt Q9UM73); conditions: compound 10.0 µM
PLK4 (human) = PLK4 (human) (UniProt O00444)
TEC (human) = TEC (human) (UniProt P42680); conditions: compound 10.0 µM

PLK1 (human), sequence (P53350 whole entry, looked up): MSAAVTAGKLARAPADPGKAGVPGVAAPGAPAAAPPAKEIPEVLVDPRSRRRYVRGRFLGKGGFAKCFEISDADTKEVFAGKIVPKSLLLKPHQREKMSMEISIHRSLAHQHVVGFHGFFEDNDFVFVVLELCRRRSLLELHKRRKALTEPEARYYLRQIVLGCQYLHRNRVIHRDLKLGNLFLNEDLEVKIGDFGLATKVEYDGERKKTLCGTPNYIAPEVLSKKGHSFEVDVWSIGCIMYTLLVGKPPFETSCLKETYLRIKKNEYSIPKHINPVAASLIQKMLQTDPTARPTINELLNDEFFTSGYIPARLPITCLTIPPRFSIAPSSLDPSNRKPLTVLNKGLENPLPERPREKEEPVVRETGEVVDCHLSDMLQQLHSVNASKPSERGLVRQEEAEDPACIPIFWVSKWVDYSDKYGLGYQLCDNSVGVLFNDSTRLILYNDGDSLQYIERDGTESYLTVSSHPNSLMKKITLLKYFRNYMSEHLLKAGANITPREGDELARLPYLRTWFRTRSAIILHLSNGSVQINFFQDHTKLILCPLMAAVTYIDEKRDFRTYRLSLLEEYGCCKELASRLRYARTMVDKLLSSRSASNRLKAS
PLK4 (human), sequence (O00444 whole entry, looked up): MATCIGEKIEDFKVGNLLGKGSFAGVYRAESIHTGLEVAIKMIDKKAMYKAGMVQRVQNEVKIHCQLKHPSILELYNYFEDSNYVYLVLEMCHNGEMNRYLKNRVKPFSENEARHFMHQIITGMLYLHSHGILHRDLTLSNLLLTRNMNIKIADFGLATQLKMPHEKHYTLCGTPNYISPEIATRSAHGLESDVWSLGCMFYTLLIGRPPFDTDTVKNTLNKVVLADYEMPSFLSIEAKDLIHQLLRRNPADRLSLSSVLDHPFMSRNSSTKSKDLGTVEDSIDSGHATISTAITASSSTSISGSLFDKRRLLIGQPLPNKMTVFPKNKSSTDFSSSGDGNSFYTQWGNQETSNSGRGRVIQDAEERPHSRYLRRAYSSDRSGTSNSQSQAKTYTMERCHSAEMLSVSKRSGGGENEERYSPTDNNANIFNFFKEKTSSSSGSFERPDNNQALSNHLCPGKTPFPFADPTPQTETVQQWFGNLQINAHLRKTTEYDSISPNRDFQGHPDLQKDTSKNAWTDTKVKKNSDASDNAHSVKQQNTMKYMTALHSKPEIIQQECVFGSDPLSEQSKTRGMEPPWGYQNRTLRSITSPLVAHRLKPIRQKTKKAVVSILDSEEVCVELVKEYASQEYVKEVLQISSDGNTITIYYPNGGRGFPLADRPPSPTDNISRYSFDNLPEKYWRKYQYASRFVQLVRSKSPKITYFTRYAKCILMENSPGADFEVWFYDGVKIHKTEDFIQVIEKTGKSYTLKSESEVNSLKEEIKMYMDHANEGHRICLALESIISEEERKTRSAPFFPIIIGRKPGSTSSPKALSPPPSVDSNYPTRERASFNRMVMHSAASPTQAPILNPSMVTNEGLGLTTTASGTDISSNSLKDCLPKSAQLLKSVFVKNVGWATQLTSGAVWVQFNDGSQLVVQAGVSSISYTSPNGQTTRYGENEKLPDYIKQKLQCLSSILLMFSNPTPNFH
CDK4 CCND3 (human), sequence (P11802 whole entry, looked up): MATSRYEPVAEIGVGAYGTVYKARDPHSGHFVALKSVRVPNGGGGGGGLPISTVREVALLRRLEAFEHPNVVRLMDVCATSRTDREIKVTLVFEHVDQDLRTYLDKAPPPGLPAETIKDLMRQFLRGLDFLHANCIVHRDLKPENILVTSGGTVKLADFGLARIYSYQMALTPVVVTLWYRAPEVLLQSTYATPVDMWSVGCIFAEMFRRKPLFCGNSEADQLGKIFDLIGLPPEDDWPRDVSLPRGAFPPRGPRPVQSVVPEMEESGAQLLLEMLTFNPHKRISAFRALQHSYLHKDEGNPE
CDK4 CCND3 (human), sequence (P30281 whole entry, looked up): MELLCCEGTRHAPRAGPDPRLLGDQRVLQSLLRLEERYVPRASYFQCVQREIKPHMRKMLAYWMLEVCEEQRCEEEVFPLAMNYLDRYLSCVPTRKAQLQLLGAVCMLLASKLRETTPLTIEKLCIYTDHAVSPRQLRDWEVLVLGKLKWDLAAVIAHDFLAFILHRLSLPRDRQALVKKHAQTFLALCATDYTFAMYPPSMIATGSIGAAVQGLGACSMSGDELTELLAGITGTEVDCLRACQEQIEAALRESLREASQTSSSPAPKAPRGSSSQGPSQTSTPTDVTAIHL
EPHA2 (human), sequence (P29317 whole entry, looked up): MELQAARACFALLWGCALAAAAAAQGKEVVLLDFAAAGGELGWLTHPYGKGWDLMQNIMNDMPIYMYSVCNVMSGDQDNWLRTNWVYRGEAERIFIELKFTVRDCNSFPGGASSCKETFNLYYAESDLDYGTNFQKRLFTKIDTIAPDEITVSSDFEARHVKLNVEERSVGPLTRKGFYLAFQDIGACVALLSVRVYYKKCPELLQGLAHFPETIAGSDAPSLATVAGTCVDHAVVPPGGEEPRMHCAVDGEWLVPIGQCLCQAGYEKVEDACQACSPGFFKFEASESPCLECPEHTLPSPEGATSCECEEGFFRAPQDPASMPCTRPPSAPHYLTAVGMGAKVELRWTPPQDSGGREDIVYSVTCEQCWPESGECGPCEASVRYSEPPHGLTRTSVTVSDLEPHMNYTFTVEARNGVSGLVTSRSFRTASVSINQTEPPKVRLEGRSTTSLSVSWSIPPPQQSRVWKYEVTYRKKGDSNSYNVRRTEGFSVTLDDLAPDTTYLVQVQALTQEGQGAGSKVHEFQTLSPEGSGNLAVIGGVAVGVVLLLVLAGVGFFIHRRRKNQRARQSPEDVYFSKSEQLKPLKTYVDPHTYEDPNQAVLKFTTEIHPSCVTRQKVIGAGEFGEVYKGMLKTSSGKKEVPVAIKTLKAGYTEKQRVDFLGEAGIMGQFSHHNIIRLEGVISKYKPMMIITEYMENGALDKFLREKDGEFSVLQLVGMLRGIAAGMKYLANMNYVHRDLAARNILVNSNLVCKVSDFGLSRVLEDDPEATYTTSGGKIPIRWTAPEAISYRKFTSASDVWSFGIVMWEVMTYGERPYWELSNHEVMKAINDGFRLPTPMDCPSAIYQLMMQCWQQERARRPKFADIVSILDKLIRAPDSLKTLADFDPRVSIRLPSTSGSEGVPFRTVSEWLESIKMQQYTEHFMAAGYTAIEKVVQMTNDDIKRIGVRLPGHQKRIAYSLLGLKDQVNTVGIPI
RET (human), P07949 [M918T], sequence (P07949 whole entry M918T, looked up): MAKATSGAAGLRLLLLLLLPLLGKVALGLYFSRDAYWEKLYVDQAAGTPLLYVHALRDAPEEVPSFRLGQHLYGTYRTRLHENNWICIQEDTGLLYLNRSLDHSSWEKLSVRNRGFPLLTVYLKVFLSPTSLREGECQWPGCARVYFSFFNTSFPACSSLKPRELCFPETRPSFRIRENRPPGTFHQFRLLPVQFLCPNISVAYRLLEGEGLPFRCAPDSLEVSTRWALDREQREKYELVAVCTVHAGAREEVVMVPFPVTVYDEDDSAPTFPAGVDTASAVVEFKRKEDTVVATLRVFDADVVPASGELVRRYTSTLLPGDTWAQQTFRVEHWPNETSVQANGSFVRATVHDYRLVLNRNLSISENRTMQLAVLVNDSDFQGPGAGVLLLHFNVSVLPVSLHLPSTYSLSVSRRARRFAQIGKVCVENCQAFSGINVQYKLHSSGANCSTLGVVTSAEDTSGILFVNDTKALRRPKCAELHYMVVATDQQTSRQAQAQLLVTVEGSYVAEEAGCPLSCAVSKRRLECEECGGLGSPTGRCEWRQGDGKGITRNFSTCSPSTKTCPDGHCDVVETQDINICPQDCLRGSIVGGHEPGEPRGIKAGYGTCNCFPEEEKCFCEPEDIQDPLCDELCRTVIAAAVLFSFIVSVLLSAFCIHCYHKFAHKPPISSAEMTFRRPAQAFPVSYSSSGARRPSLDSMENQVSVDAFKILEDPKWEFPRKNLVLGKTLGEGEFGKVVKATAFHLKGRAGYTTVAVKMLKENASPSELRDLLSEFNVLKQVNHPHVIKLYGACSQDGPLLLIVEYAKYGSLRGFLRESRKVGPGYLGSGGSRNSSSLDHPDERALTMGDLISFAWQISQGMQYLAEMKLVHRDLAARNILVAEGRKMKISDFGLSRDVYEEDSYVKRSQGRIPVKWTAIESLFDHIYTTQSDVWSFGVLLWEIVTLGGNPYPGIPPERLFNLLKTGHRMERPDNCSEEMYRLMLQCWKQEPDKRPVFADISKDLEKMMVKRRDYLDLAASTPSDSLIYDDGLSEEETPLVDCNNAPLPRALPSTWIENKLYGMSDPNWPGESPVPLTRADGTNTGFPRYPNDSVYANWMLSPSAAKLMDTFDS
TXK (human), sequence (P42681 whole entry, looked up): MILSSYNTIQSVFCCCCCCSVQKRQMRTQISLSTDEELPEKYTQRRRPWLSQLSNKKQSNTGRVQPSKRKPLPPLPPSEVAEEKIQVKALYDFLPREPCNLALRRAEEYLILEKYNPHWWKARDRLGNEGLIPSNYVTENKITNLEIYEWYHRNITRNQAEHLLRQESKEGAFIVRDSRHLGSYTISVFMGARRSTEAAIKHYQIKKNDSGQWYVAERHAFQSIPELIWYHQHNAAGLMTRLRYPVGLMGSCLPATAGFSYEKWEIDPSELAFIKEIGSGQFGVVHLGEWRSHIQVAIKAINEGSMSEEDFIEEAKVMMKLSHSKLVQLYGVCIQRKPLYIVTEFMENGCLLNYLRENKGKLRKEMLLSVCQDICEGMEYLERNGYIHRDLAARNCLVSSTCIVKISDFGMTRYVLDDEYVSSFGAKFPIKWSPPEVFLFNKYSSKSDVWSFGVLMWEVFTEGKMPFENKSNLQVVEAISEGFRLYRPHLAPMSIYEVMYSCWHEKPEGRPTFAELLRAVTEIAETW

COc1cc(C(=O)N2CCC(N3CCN(C)CC3)CC2)ccc1Nc1ncc2c(n1)N(C)c1ccccc1C(=O)N2C
kinase still bound, per cent of control (AXL (human)): 100% | kinase still bound, per cent of control (TNK2 (human)): 18% | kinase still bound, per cent of control (PRKAA2 (human)): 66% | kinase still bound, per cent of control (PRPF4B (human)): 93% | kinase still bound, per cent of control [1]: 80% | kinase still bound, per cent of control (MAPK3 (human)): 100% | kinase still bound, per cent of control (PRKX (human)): 99% | residual activity (CDC2L2 (human)): 82% | kinase still bound, per cent of control (MAP3K6 (human)): 100% | kinase still bound, per cent of control (PTK2 (human)): 34% | kinase still bound, per cent of control (MAP4K1 (human)): 100% | kinase still bound, per cent of control (RPS6KA4 KD1 (human)): 100% | kinase still bound, per cent of control (CLK4 (human)): 54% | kinase still bound, per cent of control (DCLK3 (human)): 90% | kinase still bound, per cent of control (NUAK2 (human)): 47% | kinase still bound, per cent of control (MAST1 (human)): 100% | kinase still bound, per cent of control (PRKCE (human)): 100% | kinase still bound, per cent of control (PKN1 (human)): 100% | residual activity (CDKL5 (human)): 100% | kinase still bound, per cent of control (ULK2 (human)): 67% | kinase still bound, per cent of control (NTRK2 (human)): 100% | kinase still bound, per cent of control (MAP3K11 (human)): 100% | kinase still bound, per cent of control (PAK7 (human)): 96% | kinase still bound, per cent of control (TXK (human)): 91% | kinase still bound, per cent of control (SNRK (human)): 94% | kinase still bound, per cent of control (MAP3K13 (human)): 100% | kinase still bound, per cent of control (WEE1 (human)): 100% | kinase still bound, per cent of control [2]: 100% | Kd (PLK1 (human)): 75 nM | kinase still bound, per cent of control (PLK1 (human); compound 10.0 µM): 0.7% | residual activity (CDK4 CCND3 (human)): 100% | kinase still bound, per cent of control [3]: 88% | residual activity (STK39 (human)): 39% | residual activity (CDKL1 (human)): 78% | kinase still bound, per cent of control (FGFR3 (human)): 80% | kinase still bound, per cent of control [4]: 91% | kinase still bound, per cent of control (ACVR1 (human)): 98% | kinase still bound, per cent of control (EPHA2 (human)): 92% | kinase still bound, per cent of control (IKBKE (human)): 96% | kinase still bound, per cent of control (ALK (human)): 13% | Kd (PLK4 (human)): 16 nM | kinase still bound, per cent of control (PLK4 (human); compound 10.0 µM): 0% | kinase still bound, per cent of control (TEC (human)): 100%
